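Step 1: Grow cells in 96-well plates. Step 2: Expose to compound for 48 hours at 5 concentrations. Step 3: Interpolate endpoints linearly; if unreached, use highest concentration. TGI: concentration producing complete growth inhibition.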
How the values were obtained:
Test in all cases: NCI anticancer screen, dose series, 48 h
[1] = test system: MDA-MB-435
[2] = test system: HCC-2998 colon
[3] = test system: NCI-H226 lung
[4] = test system: SK-OV-3 ovarian
[5] = test system: DU-145 prostate
[6] = test system: HCT-116 colon
[7] = test system: MDA-N
[8] = test system: NCI-H23 lung
[9] = test system: OVCAR-4 ovarian
[10] = test system: TK-10 renal
[11] = test system: EKVX NSCLC
[12] = test system: M14 melanoma
[13] = test system: HOP-62 NSCLC
[14] = test system: KM12 colon
[15] = test system: OVCAR-8 ovarian
[16] = test system: HCT-15 colon
[17] = test system: SK-MEL-5 melanoma
[18] = test system: MALME-3M melanoma
[19] = test system: HS 578T breast
[20] = test system: SF-268 CNS
[21] = test system: SN12C renal
[22] = test system: T-47D breast
[23] = test system: RPMI-8226 leukemia
[24] = test system: SK-MEL-2 melanoma
[25] = test system: RXF 393 renal
[26] = test system: PC-3 prostate
[27] = test system: HT29 colon
[28] = test system: CAKI-1 renal
[29] = test system: COLO 205 colon
[30] = test system: SF-295 CNS
[31] = test system: OVCAR-3 ovarian
[32] = test system: OVCAR-5 ovarian
[33] = test system: SK-MEL-28 melanoma
[34] = test system: NCI/ADR-RES ovarian
[35] = test system: MDA-MB-231 breast
[36] = test system: SNB-19 CNS
[37] = test system: CCRF-CEM leukemia
[38] = test system: U251 CNS
[39] = test system: HL-60(TB) leukemia
[40] = test system: A498 renal
[41] = test system: LOX IMVI melanoma
[42] = test system: HOP-92 NSCLC
[43] = test system: ACHN renal
[44] = test system: MOLT-4 leukemia
[45] = test system: K-562 leukemia
[46] = test system: A549 NSCLC
[47] = test system: SR leukemia
[48] = test system: UO-31 renal
[49] = test system: MCF7 breast
[50] = test system: NCI-H522 lung
[51] = test system: IGROV1 ovarian
[52] = test system: SW-620 colon
[53] = test system: 786-0 renal
[54] = test system: BT-549 breast
[55] = test system: SF-539 CNS
[56] = test system: NCI-H460 lung
[57] = test system: UACC-257 melanoma
[58] = test system: UACC-62 melanoma

COC(=O)c1c(O)ccc2c1c1c(n2CCc2ccccc2)C(=O)c2ccccc2C1=O
TGI [1]: 20.6 µM | TGI [2]: 4.96 µM | TGI [3]: 34.1 µM | TGI [4]: 32.3 µM | TGI [5]: 40.7 µM | TGI [6]: 23.3 µM | TGI [7]: 24.8 µM | TGI [8]: 25.6 µM | TGI [9]: 20.7 µM | TGI [10]: 24.1 µM | TGI [11]: 36.5 µM | TGI [12]: 30.3 µM | TGI [13]: 36.6 µM | TGI [14]: 26.4 µM | TGI [15]: 22.1 µM | TGI [16]: 24.9 µM | TGI [17]: 25.3 µM | TGI [18]: 29.6 µM | TGI [19]: 36.4 µM | TGI [20]: 28.8 µM | TGI [21]: 24.9 µM | TGI [22]: 20.8 µM | TGI [23]: 32.1 µM | TGI [24]: 29.8 µM | TGI [25]: 34.9 µM | TGI [26]: 25.4 µM | TGI [27]: 27.1 µM | TGI [28]: 27.5 µM | TGI [29]: 3.24 µM | TGI [30]: 36.2 µM | TGI [31]: 19.9 µM | TGI [32]: 37.7 µM | TGI [33]: 30 µM | TGI [34]: 23.6 µM | TGI [35]: 29.7 µM | TGI [36]: 32.8 µM | TGI [37]: 50.8 µM | TGI [38]: 26.8 µM | TGI [39]: 37.9 µM | TGI [40]: 31.5 µM | TGI [41]: 38.4 µM | TGI [42]: 31.4 µM | TGI [43]: 24.5 µM | TGI [44]: 17.3 µM | TGI [45]: 25.8 µM | TGI [46]: 22.6 µM | TGI [47]: 22.7 µM | TGI [48]: 23.1 µM | TGI [49]: 30.2 µM | TGI [50]: 22.7 µM | TGI [51]: 24.9 µM | TGI [52]: 30.3 µM | TGI [53]: 31 µM | TGI [54]: 29.6 µM | TGI [55]: 30.8 µM | TGI [56]: 18 µM | TGI [57]: 32.3 µM

COC(=O)/C(=C(\C)NC(C)=O)c1c(C(=O)OC)[nH]c2ccccc12
TGI [1]: > 100 µM | TGI [2]: > 100 µM | TGI [3]: > 100 µM | TGI [4]: > 100 µM | TGI [5]: > 100 µM | TGI [6]: > 100 µM | TGI [7]: > 100 µM | TGI [8]: > 100 µM | TGI [9]: > 100 µM | TGI [10]: > 100 µM | TGI [11]: > 100 µM | TGI [12]: > 100 µM | TGI [13]: > 100 µM | TGI [14]: > 100 µM | TGI [15]: > 100 µM | TGI [16]: > 100 µM | TGI [17]: > 100 µM | TGI [18]: > 100 µM | TGI [19]: > 100 µM | TGI [20]: > 100 µM | TGI [21]: > 100 µM | TGI [22]: > 100 µM | TGI [23]: > 100 µM | TGI [24]: > 100 µM | TGI [25]: > 100 µM | TGI [26]: > 100 µM | TGI [27]: > 100 µM | TGI [28]: > 100 µM | TGI [29]: > 100 µM | TGI [30]: > 100 µM | TGI [31]: > 100 µM | TGI [32]: > 100 µM | TGI [33]: > 100 µM | TGI [34]: > 100 µM | TGI [35]: > 100 µM | TGI [36]: > 100 µM | TGI [37]: > 100 µM | TGI [58]: > 100 µM | TGI [38]: > 100 µM | TGI [39]: > 100 µM | TGI [40]: > 100 µM | TGI [41]: > 100 µM | TGI [42]: > 100 µM | TGI [43]: > 100 µM | TGI [44]: > 100 µM | TGI [45]: > 100 µM | TGI [46]: > 100 µM | TGI [47]: > 100 µM | TGI [48]: > 100 µM | TGI [49]: > 100 µM | TGI [50]: > 100 µM | TGI [51]: > 100 µM | TGI [52]: > 100 µM | TGI [53]: > 100 µM | TGI [54]: > 100 µM | TGI [55]: > 100 µM | TGI [56]: > 100 µM | TGI [57]: > 100 µM

— PubChem BioAssay (NCI)
